According to US4820836A, “Prostacyclin (PGI2) analogues” (Shionogi & Co., Ltd., priority 1986, dated 1989):
Read-outs that look alike come from different tables or passages of the source.

Tested on: Platelet Agglutination
Assay: In vitro inhibition of platelet agglutination (rabbit platelet rich plasma, aggregometer) induced by arachidonic acid, collagen or ADP
Format: cell-based
Conditions: Oryctolagus cuniculus, rabbit PRP
Procedure: The inhibitory activity of the representative compounds of the present invention against platelet agglutination is shown in the following in vitro test.
Mature male rabbits (NIBS-JW, RABITON Institute Inc., weighing 2.2-2.7 kg) were used. Under sodium pentobarbital anesthesia (Somnopentyl, Pitman Movre, about 25 mg/Kg, i.v.), blood was with from the carotid artery by cannulation into centrifuge tubes containg 1/10 vol of a 3.8% sodium citrate solution. (The total volume in each tube was adjusted to 8 ml.) The blood in a tube was gentyl mixed by turing and centrifuged for 10 minutes at 210 g at 20° C. to give platelet rich plasma (PRP). The remaining blood was further centrifuged at 3,000 rpm (about 1,900 g) for 10 minutes at 20° C. to give platelet-poor plasma (PPP).
PRP was diluted with PPP to prepare a blood sample whose platelet number was 50-55×10^4 /μl. The sample was then subjected to a platelet agglutination test.
The platelet agglutination was examined by the method of Bron [Born, G.V.R., Nature, 194, 927-929 (1962)], using a Type AUTO RAM-61 aggregometer, (Rika Denki Co., Ltd., Tokyo). A volume of 400 μl of PRP, whose platelet number was adjusted to 50-55×10^4 /μl, was placed in a measuring cuvette and set in the aggregometer. PRP was warmed at 37° C. for 1 minute with stirring at 1,200 rpm, and then a solution of the test compound [dimethylsulfoxide solution (2 μl) of the compound+saline (48 μl); in case of prostaglandin I2 (PGI2) and prostaglandin E1 (PG E1), a solution of each compound (50 μl) in Tris buffer] was added thereto. Exactly 2 minutes later, 50 μl of ADP Pharmacia, U.S.A., (final concentration: 30 μM) or collagen (final muchen, muchen, concentration: 20 μg/ml) or arachidonic acid (sodium salt, Sigma, final concentration (500 μM) was added as a platelet agglutinating agent, and the change in light transmission caused by platelet agglutination was recorded.
The light transmissions of PRP and PPP were taken as 0% and 100% agglutination, respectively, and the maximum light transmission after addition of an agglutinating agent was made to the maxiumum agglutination. The inhibition rate of the platelet agglutination was expressed as the percentage of the maximum agglutination by a test compound to that by a control (Vehicle added group).
Prostaglandin (PG) I2 and E1 are served as standard substances.

[1] = ADP, final 30 μM, 37° C., compound in dimethylsulfoxide+saline, read-out: Inhibition Activity against Platelet Agglutination [50% Inhibition Concentration (μM)], ADP
[2] = arachidonic acid, final 500 μM, 37° C., compound in dimethylsulfoxide+saline, read-out: Inhibition Activity against Platelet Agglutination [50% Inhibition Concentration (μM)], Arachidonic acid
[3] = collagen, final 20 μg/ml, 37° C., compound in dimethylsulfoxide+saline, read-out: Inhibition Activity against Platelet Agglutination [50% Inhibition Concentration (μM)], Collagen

Structure (SMILES)	IC50 [1] [µM]	IC50 [2] [µM]	IC50 [3] [µM]	also measured
C#C[C@]12C[C@@H](O)[C@H](/C=C/[C@H](O)C(C)CCCC)[C@H]1CC(SCCCC(=O)OCC)=N2 (stereo partly drawn) [17(R)g-b]	2.06	1.55	0.54	
C#C[C@]12C[C@@H](O)[C@H](/C=C/[C@H](O)C(C)CC#CC)[C@H]1CC(SCCCC(=O)OCC)=N2 (stereo partly drawn) [17(R)g-d]	8.43	11.7	4	
C#C[C@]12C[C@@H](O)[C@H](/C=C/[C@H](O)C3CCCCC3)[C@H]1CC(SCCCC(=O)OCC)=N2 [17(R)g-e]	13.4	60.6	3	
C=C[C@]12C[C@@H](O)[C@H](/C=C/[C@H](O)C(C)CC#CC)[C@H]1CC(SCCCC(=O)OCC)=N2 (stereo partly drawn) [17(R)l-d]	55	118	23	
C=C[C@]12C[C@@H](O)[C@H](/C=C/[C@H](O)C3CCCC3)[C@H]1CC(SCCCC(=O)OCC)=N2 [17(R)l-f]	142	443	54	
CCCCC[C@H](O)/C=C/[C@H]1[C@H](O)C[C@]2(Sc3ccccc3)N=C(SCCCC(=O)OCC)C[C@H]12 [17(S)a, ethyl 4-[7-hydroxy-6-[(3S)-3-hydroxy-1-octenyl]-1-phenylthio-2-azabicyclo[3.3.0]oct-2-en-3-yl]thiobutanoate]	16	21	8	
CCCCC[C@H](O)/C=C/[C@H]1[C@H](O)C[C@]2(OC)N=C(SCCCC(=O)OCC)C[C@H]12 [17(S)b]	15	16	7	
CCCCC[C@H](O)/C=C/[C@H]1[C@H](O)C[C@]2(CC)N=C(SCCCC(=O)OCC)C[C@H]12 [17(S)d]	18	160	9	
CCCCC[C@H](O)/C=C/[C@H]1[C@H](O)C[C@]2(C)N=C(SCCCC(=O)OCC)C[C@H]12 [17(S)e]	1.6	4.4	0.6	
C#C[C@]12C[C@@H](O)[C@H](/C=C/[C@@H](O)CCCCC)[C@H]1CC(SCCCC(=O)OCC)=N2 [17(S)g, ethyl 4-[1-ethynyl-7-hydroxy-6-[(3S)-3-hydroxy-1-octenyl]-2-azabicyclo[3.3.0]oct-2-en-3-yl]thiobutanoate]	0.011	0.02	0.006	
C#C[C@]12C[C@@H](O)[C@H](/C=C/[C@@H](O)C(C)CCCC)[C@H]1CC(SCCCC(=O)OCC)=N2 (stereo partly drawn) [17(S)g-b]	0.0066	0.012	0.0013	
C#C[C@]12C[C@@H](O)[C@H](/C=C/[C@@H](O)C(C)CC#CC)[C@H]1CC(SCCCC(=O)OCC)=N2 (stereo partly drawn) [17(S)g-d]	0.014	0.018	0.0042	
C#C[C@]12C[C@@H](O)[C@H](/C=C/[C@@H](O)C3CCCCC3)[C@H]1CC(SCCCC(=O)OCC)=N2 [17(S)g-e]	0.033	0.146	0.0094	
CC#C[C@]12C[C@@H](O)[C@H](/C=C/[C@@H](O)CCCCC)[C@H]1CC(SCCCC(=O)OCC)=N2 [17(S)h]	0.006	0.01	0.0013	
CCCCC[C@H](O)/C=C/[C@H]1[C@H](O)C[C@]2(C#Cc3ccccc3)N=C(SCCCC(=O)OCC)C[C@H]12 [17(S)i]	5	44	0.45	
C#CC#C[C@]12C[C@@H](O)[C@H](/C=C/[C@@H](O)CCCCC)[C@H]1CC(SCCCC(=O)OCC)=N2 [17(S)k, ethyl 4-[1-(1,3-butadiynyl)-7-hydroxy-6-[(3S)-3-hydroxy-1-octenyl]-2-azabicycl[3.3.0]oct-2-en-3-yl]thiobutanoate]	0.27	0.74	0.053	
C=C[C@]12C[C@@H](O)[C@H](/C=C/[C@@H](O)CCCCC)[C@H]1CC(SCCCC(=O)OCC)=N2 [17(S)l, ethyl 4-[1-ethenyl-7-hydroxy-6[(3S)-3-hydroxy-1-octenyl]-2-azabicyclo[3.3.0]oct-2-en-3-yl]thiobutanoate]	0.42	0.7	0.1	
C=C[C@]12C[C@@H](O)[C@H](/C=C/[C@@H](O)C(C)CC#CC)[C@H]1CC(SCCCC(=O)OCC)=N2 (stereo partly drawn) [17(S)l-d]	0.13	0.36	0.048	
C=C[C@]12C[C@@H](O)[C@H](/C=C/[C@@H](O)C3CCCC3)[C@H]1CC(SCCCC(=O)OCC)=N2 [17(S)l-f]	0.3	1.2	0.12	
CCCCC[C@H](O)/C=C/[C@H]1[C@H](O)C[C@]2(C#N)N=C(SCCCC(=O)OCC)C[C@H]12 [17(S)m, ethyl 4-[1-cyano-7-hydroxy-6-[(3S)-3-hydroxy-1-octenyl]-2-azabicyclo[3.3.0]oct-2-en-3-yl]thiobutanoate]	0.167	0.332	0.044	
C#C[C@]12C[C@@H](O)[C@H](/C=C/[C@@H](O)CCCCC)[C@H]1CC(SCCCC(=O)OC)=N2 [18(S)g, methyl 4-[1-ethynyl-7-hydroxy-6-[(3S)-3-hydroxy-1-octenyl]-2-azabicyclo[3.3.0]oct-2-en-3-yl]thiobutanoate]	0.0241	0.081	0.011	
C#C[C@]12C[C@@H](O)[C@H](/C=C/[C@@H](O)CCCCC)[C@H]1CC(SCCCC(=O)O)=N2 [19(S)g, Sodium 4-[1-ethynyl-7-hydroxy-6-[(3S)-3-hydroxy-1-octenyl]-2-azabicyclo[3.3.0]oct-2-en-3-yl]thiobutanoate]	0.0049	0.0093	0.0093	
CC#C[C@]12C[C@@H](O)[C@H](/C=C/[C@@H](O)CCCCC)[C@H]1CC(SCCCC(=O)O)=N2 [19(S)h, sodium 4-[7-hydroxy-6-[(3S)-3-hydroxy-1-octenyl]-1-(1-propynyl)-2-azabicyclo[3.3.0]oct-2-en-3-yl]thiobutanoate]	0.0042	0.0035	0.0028	
CCCCC[C@H](O)/C=C/[C@@H]1[C@H]2CC(SCCCC(=O)OC)=N[C@H]2C[C@H]1O [Compound 18c, reference compound]	0.074	0.16	0.062	
CCCCC[C@H](O)/C=C/[C@H]1[C@H](O)CC(=O)[C@@H]1CCCCCCC(=O)O [PGE1, prostaglandin E1, reference compound]				IC50 (pH 7.4, ADP, final 30 μM, Tris buffer, pH7.4, read-out: Inhibition Activity against Platelet Agglutination [50% Inhibition Concentration (μM)], ADP): 0.066 µM; IC50 (pH 7.4, arachidonic acid, final 500 μM, Tris buffer, pH7.4, read-out: Inhibition Activity against Platelet Agglutination [50% Inhibition Concentration (μM)], Arachidonic acid): 0.25 µM; IC50 (pH 7.4, collagen, final 20 μg/ml, Tris buffer, pH7.4, read-out: Inhibition Activity against Platelet Agglutination [50% Inhibition Concentration (μM)], Collagen): 0.052 µM
CCCCC[C@H](O)/C=C/[C@@H]1[C@H]2C/C(=C/CCCC(=O)O)O[C@H]2C[C@H]1O [PGI2, prostaglandin I2]				IC50 (pH 8, ADP, final 30 μM, Tris buffer, pH8.0, read-out: Inhibition Activity against Platelet Agglutination [50% Inhibition Concentration (μM)], ADP): 0.014 µM; IC50 (pH 8, arachidonic acid, final 500 μM, Tris buffer, pH8.0, read-out: Inhibition Activity against Platelet Agglutination [50% Inhibition Concentration (μM)], Arachidonic acid): 0.054 µM; IC50 (pH 8, collagen, final 20 μg/ml, Tris buffer, pH8.0, read-out: Inhibition Activity against Platelet Agglutination [50% Inhibition Concentration (μM)], Collagen): 0.019 µM; IC50 (pH 10, ADP, final 30 μM, Tris buffer, pH10.0, read-out: Inhibition Activity against Platelet Agglutination [50% Inhibition Concentration (μM)], ADP): 0.016 µM; IC50 (pH 10, arachidonic acid, final 500 μM, Tris buffer, pH10.0, read-out: Inhibition Activity against Platelet Agglutination [50% Inhibition Concentration (μM)], Arachidonic acid): 0.09 µM; IC50 (pH 10, collagen, final 20 μg/ml, Tris buffer, pH10.0, read-out: Inhibition Activity against Platelet Agglutination [50% Inhibition Concentration (μM)], Collagen): 0.02 µM
